Where only a bound is given, the exact number is not on record here.

The target of this assay is T1, Itk (Homo sapiens, UniProt Q08881).
T1 sequence (Q08881 1-620): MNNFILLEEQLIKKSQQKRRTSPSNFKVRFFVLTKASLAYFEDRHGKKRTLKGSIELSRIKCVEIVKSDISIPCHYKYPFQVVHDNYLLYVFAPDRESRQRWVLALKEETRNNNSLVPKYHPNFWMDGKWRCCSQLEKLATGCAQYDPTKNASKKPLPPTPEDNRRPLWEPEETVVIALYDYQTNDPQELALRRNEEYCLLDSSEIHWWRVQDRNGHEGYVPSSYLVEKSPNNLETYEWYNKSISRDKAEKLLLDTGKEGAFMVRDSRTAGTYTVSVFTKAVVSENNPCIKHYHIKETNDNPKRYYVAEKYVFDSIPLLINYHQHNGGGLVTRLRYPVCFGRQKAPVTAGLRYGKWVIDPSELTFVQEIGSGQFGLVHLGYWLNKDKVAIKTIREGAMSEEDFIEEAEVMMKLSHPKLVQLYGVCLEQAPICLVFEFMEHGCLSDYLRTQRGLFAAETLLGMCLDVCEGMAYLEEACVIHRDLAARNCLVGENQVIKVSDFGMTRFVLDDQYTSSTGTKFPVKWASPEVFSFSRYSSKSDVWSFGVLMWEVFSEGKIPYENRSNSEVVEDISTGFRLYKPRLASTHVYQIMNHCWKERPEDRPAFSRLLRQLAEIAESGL
Briefly: Itk inhibition assay: radioactivity-based (Method A). The note with it: 15 μM ATP, read-out: IC50 in the radioactive incorporation assay (Method A). In kind it is biochemical. As for the experimental part:
The compounds of the present invention were evaluated as inhibitors of human Itk kinase using either a radioactivity-based, spectrophotometric or alphascreen assay.
Assays were carried out in a mixture of 100 mM HEPES (pH 7.5), 10 mM MgCl2, 25 mM NaCl, 0.01% BSA and 1 mM DTT. Final substrate concentrations were 15 μM [γ-^33P]ATP (400 μCi ^33P ATP/μmol ATP, Amersham Pharmacia Biotech/Sigma Chemicals) and 2 μM peptide (SAM68 protein Δ332-443). Assays were carried out at 25° C. in the presence of 30 nM Itk. An assay stock buffer solution was prepared containing all of the reagents listed above, with the exception of ATP and the test compound of interest. 50 μL of the stock solution was placed in a 96 well plate followed by addition of 1.5 μL of DMSO stock containing serial dilutions of the test compound (typically starting from a final concentration of 15 μM with 2-fold serial dilutions) in duplicate (final DMSO concentration 1.5%). The plate was pre-incubated for 10 minutes at 25° C. and the reaction initiated by addition of 50 μL [γ-^33P]ATP (final concentration 15 μM).
The reaction was stopped after 10 minutes by the addition of 50 μL of a TCA/ATP mixture (20% TCA, 0.4 mM ATP). A Unifilter GF/C 96 well plate (Perkin Elmer Life Sciences, Cat no. 6005174) was pretreated with 50 μL Milli Q water prior to the addition of the entire reaction mixture (150 μL). The plate was washed with 200 μL Milli Q water followed by 200 μL of a TCA/ATP mixture (5% TCA, 1 mM ATP). This wash cycle was repeated a further 2 times. After drying, 30 μL Optiphase ‘SuperMix’ liquid scintillation cocktail (Perkin Elmer) was added to the well prior to scintillation counting (1450 Microbeta Liquid Scintillation Counter, Wallac).
IC50 data were calculated from non-linear regression analysis of the initial rate data using the Prism software package (GraphPad Prism version 3.0cx for Macintosh, GraphPad Software, San Diego Calif., USA).
With `Nc1cccc(-c2cc3c(s2)CCc2cnc(Nc4cccc(S(N)(=O)=O)c4)nc2-3)c1` [Compound I-10], the IC50 was less than 1000 nM. As for `COc1ccc(OC)c(-c2cc3c(s2)CCc2cnc(Nc4cccc(S(N)(=O)=O)c4)nc2-3)c1` [Compound I-20], the figure is less than 1000 nM. Consider `COc1cccc(-c2cc3c(s2)CCc2cnc(Nc4ccc(S(N)(=O)=O)cc4)nc2-3)c1` [Compound I-18], for which the IC50 was less than 1000 nM. Regarding `NS(=O)(=O)c1cccc(Nc2ncc3c(n2)-c2cc(-c4ccccc4OC(F)(F)F)sc2CC3)c1` [Compound I-28], the IC50 was less than 1000 nM.

`COc1cccc(-c2cc3c(s2)CCc2cnc(Nc4cccc(S(N)(=O)=O)c4)nc2-3)c1` [Compound I-2]: the IC50 is less than 1000 nM. Then `NS(=O)(=O)c1cccc(Nc2ncc3c(n2)-c2ccsc2CC3)c1` [Compound I-21], with less than 1000 nM; and `CC(=O)Nc1cccc(-c2cc3c(s2)CCc2cnc(Nc4cccc(S(N)(=O)=O)c4)nc2-3)c1` [Compound I-6], with less than 1000 nM; and `COc1cccc(-c2cc3c(s2)CCc2cnc(Nc4ccc(O)cc4)nc2-3)c1` [Compound I-23], with less than 1000 nM. For the compound `COc1cccc(-c2cc3c(s2)CCc2cnc(Nc4cccc(S(N)(=O)=O)c4)nc2-3)c1OC` [Compound I-17], the IC50 was less than 1000 nM. Regarding `COc1cccc(-c2cc3c(s2)CCc2cnc(Nc4ccc(S(C)(=O)=O)cc4)nc2-3)c1` [Compound I-25], the IC50 is less than 1000 nM.

Regarding `NS(=O)(=O)c1cccc(Nc2ncc3c(n2)-c2cc(-c4ccccc4O)sc2CC3)c1` [Compound I-27], the IC50 was less than 1000 nM. Consider `NS(=O)(=O)c1cccc(Nc2ncc3c(n2)-c2cc(-c4ccccc4Cl)sc2CC3)c1` [Compound I-7], for which the IC50 was less than 1000 nM. With `NS(=O)(=O)c1cccc(Nc2ncc3c(n2)-c2cc(-c4cccs4)sc2CC3)c1` [Compound I-8], the IC50 was less than 1000 nM. With `N#Cc1cccc(-c2cc3c(s2)CCc2cnc(Nc4cccc(S(N)(=O)=O)c4)nc2-3)c1` [Compound I-12], the IC50 was less than 1000 nM. Then `COc1ccccc1-c1cc2c(s1)CCc1cnc(Nc3cccc(S(N)(=O)=O)c3)nc1-2` [Compound I-9], with less than 1000 nM; and `NS(=O)(=O)c1cccc(Nc2ncc3c(n2)-c2cc(-c4cccnc4)sc2CC3)c1` [Compound I-3], with less than 1000 nM. As for `NS(=O)(=O)c1cccc(Nc2ncc3c(n2)-c2cc(-c4ccccc4CO)sc2CC3)c1` [Compound I-29], the figure is less than 1000 nM.

Values taken from US7700609B2, “Compositions useful as inhibitors of protein kinases” (Vertex Pharmaceuticals Incorporated, priority 2003, dated 2010).
